{
  "source": "paper PMC5786788",
  "about": "“Antimicrobial Octapeptin C4 Analogues Active against Cryptococcus Species” (Antimicrobial Agents and Chemotherapy, 2018)",
  "key": {"[1]": {"system": "C. neoformans H99 (cap59Δ)", "type": "cell-based, Cryptococcus neoformans", "conditions": "triplicate", "source_text": "The different susceptibility of C. neoformans and C. gattii to PMB compared to other pathogenic fungi such as C. albicans and A. fumigatus has been postulated to arise from differences in cell surface composition ([38]). One key difference is the presence of a negatively charged polysaccharide capsule in Cryptococcus spp. proposed to concentrate the cationic lipopeptides at the cell surface ([38]). To examine this potential interaction for the octapeptin series, a C. neoformans cap59Δ mutant strain deficient in the secretion of negatively charged glucuronoxylomannan (an α1–3-linked mannan containing β1,2 and β1,4 xylosyl substitutions, as well as β1,2-linked glucuronyl residues) ([41], [42]), was tested against octapeptin C4 in comparison to PMB.\n(§1) Fungal strains were stored in 15% glycerol at −80°C until use. The fungal strains used were H99 (C. neoformans type strain) ([55]), cap59Δ (an acapsular H99 mutant) ([56]), ATCC 90113 (C. neoformans), MMRL 2651 (C. gattii), ATCC 90028 (Candida albicans), ATCC 90030 (Candida glabrata), ATCC 22019 (Candida parapsilosis), and ATCC MYA 3626 (Aspergillus fumigatus). Yeasts were cultured in liquid (1% yeast extract, 2% Bacto peptone, 2% glucose) or solid (additional 2% agar) yeast extract-peptone-dextrose (YPD) media at 30°C and maintained at 4°C for no longer than 2 weeks. A. fumigatus was prepared on potato dextrose medium at 30°C and maintained at 4°C for no longer than 2 weeks.\n(§2) The MICs of the yeast strains for PMB, PME, and octapeptin C4 and its derivatives were determined in accordance with CLSI M27-A2 guidelines using YNB (Becton Dickinson, USA) medium supplemented with 10 mM ammonium sulfate and 2% glucose, a final inoculum concentration of 1.5 × 10^3 to 2.0 × 10^3 cells/ml, and incubation at 35°C for 72 h ([39]). […] The MICs for PMB, PME, and octapeptin C4 for A. fumigatus were determined in accordance with the CLSI M38-A2 guidelines ([40]) using synthetic RPMI 1640 medium (with glutamine, without bicarbonate and with phenol red; Life Technologies, USA). The final inoculum concentration was 0.4 × 10^4 to 5 × 10^4 cells/ml, with incubation at 35°C for 48 h. […] All assays were completed in triplicate. Fluconazole was used as a positive control where the MIC was determined at both 50% growth (in accordance with CLSI M27-A2 guidelines) and when there was a “no visible growth” reading."}, "[2]": {"system": "capsule-induced or -suppressed C. neoformans H99 cells", "test": "In vitro time course assay of capsule influence", "type": "cell-based, Cryptococcus neoformans", "conditions": "H99; PMB at 12.5 μM, octapeptin C4 at 1.56 μM; 0-8 h; two replicates", "protocol": "(A) C. neoformans grown on capsule inducing RPMI 1640 agar medium (without L-glutamine and sodium bicarbonate) with incubation at 37°C in 5% CO2 for 3 days. Scale bar, 20 μm. (B) C. neoformans grown on capsule-suppressing media, YPD containing 1 M NaCl at 30°C in ambient air for 3 days. […] The data represent the means of two replicates, and the error bars represent the standard errors of the mean (SEM).\nCapsule induction of strain H99 was achieved as described by Zhai et al. ([37]) with growth on RPMI 1640 (without L-glutamine and sodium bicarbonate) (Sigma, Australia) agar medium and incubation at 37°C in 5% CO2 and capsule suppression by growth on YPD containing 1 M NaCl at 30°C in ambient air. After 3 days, the cells from each culture were collected, washed twice with phosphate-buffered saline (PBS), and resuspended in PBS to avoid changes in the capsule at a density of 1,500 to 2,000 cells/ml. Cell suspensions were treated with test compounds at the determined MIC value. The compounds tested were PMB sulfate, octapeptin C4, and the octapeptin C4 alanine scan derivatives P1L, P1D, P4, P3, P4L, P4D, P5, P6, P7, and P8. At 0, 1, 2, 4, 6, and 8 h after inoculation, samples from each treatment were spread onto a YPD plate, followed by incubation at 30°C for 3 days, at which time the colonies were counted. The assay was repeated in duplicate, and paired sample t tests were performed using GraphPad Prism v7.0 (GraphPad Software, USA)."}, "C. gattii MMRL 2651": {"system": "C. gattii MMRL 2651", "conditions": "72 h", "protocol": "(§3) A broth microdilution assay was initially used to characterize the antifungal activity of the cyclic lipopeptides ([39], [40]). […] common pathogenic yeasts (C. albicans, C. glabrata, C. parapsilosis, C. neoformans, and C. gattii) and one pathogenic mold (A. fumigatus) were tested to determine the MIC for each compound (Table 1) using broth microdilution. […] The only structural difference between these molecules is the presence of a phenylalanine residue at position 6 in PMB; in PME a D-leucine is present at this location (Fig. 1).\nas §1, §2"}, "C. neoformans H99": {"system": "C. neoformans H99", "protocol": "as §3, §1, §2"}, "C. neoformans ATCC 90113": {"system": "C. neoformans ATCC 90113", "conditions": "ATCC 90113, 72 h", "protocol": "as §3, §1, §2"}, "human kidney-2 cell line": {"system": "human kidney-2 cell line", "conditions": "cited from earlier work"}},
  "note": "“Also recorded” adds a separate entry of the source. Where a SMILES comes first, the peptide text is derived from it. Bridges are numbered along the chain shown (N, C = ends). [ ]: non-standard residue; d: D form. The star is where a group is joined. Decanoyl(3R-OH) = CCCCCCC[C@@H](O)CC(=O)*; dDab = NCC[C@@H](N)C(=O)O; Dab = NCC[C@H](N)C(=O)O",
  "data": [
    {"smiles": "CCCCCCC[C@@H](O)CC(=O)N[C@H](CCN)C(=O)N[C@H]1CCNC(=O)[C@H](CC(C)C)NC(=O)[C@H](CCN)NC(=O)[C@H](CCN)NC(=O)[C@H](CC(C)C)NC(=O)[C@@H](Cc2ccccc2)NC(=O)[C@H](CCN)NC1=O", "note": "[Octapeptin C4, octapeptin C4] ({Decanoyl(3R-OH)}-[dDab][Dab][Dab][dF]L[Dab][Dab]L; lactam 2-C (inferred); N-terminus assumed)", "values": [
      {"measurement": "MIC C. neoformans H99 (cap59Δ)", "setting": "[1]; Table 1, CLSI M27-A2, YNB medium, 35°C, no visible growth after 72 h", "value": 6.25, "unit": "µg/mL"},
      {"measurement": "MICs against various Cryptococcus strains: H99 (cap59Δ)", "setting": "[1]; Table 2, values consistent across replicates", "value": 6.25, "unit": "µg/mL"},
      {"measurement": "effect of capsule formation on fungicidal activity", "setting": "[2]", "value": "retarded the fungicidal activity; also recorded: small but statistically significant increase in survival"},
      {"measurement": "MIC C. gattii", "setting": "C. gattii MMRL 2651", "value": 3.13, "unit": "µg/mL"},
      {"measurement": "MICs against various Cryptococcus strains: MMRL 2651", "setting": "C. gattii MMRL 2651", "value": 3.13, "unit": "µg/mL"},
      {"measurement": "MIC C. neoformans H99", "setting": "C. neoformans H99; H99, 72 h", "value": 1.56, "unit": "µg/mL"},
      {"measurement": "MICs against various Cryptococcus strains: H99", "setting": "C. neoformans H99; H99, 72 h", "value": 1.56, "unit": "µg/mL"},
      {"measurement": "fold more potent than PMB", "setting": "C. neoformans H99; by MIC against C. neoformans", "value": "~8", "unit": "fold"},
      {"measurement": "fold more potent than PME", "setting": "C. neoformans H99; by MIC against C. neoformans", "value": "> 60", "unit": "fold"},
      {"measurement": "MIC C. neoformans ATCC 90113", "setting": "C. neoformans ATCC 90113", "value": 1.56, "unit": "µg/mL"},
      {"measurement": "MICs against various Cryptococcus strains: ATCC 90113", "setting": "C. neoformans ATCC 90113", "value": 1.56, "unit": "µg/mL"},
      {"measurement": "50% cytotoxic concentration", "setting": "human kidney-2 cell line", "value": 31, "unit": "µM"}
    ]}
  ]
}
